From patent publication US20180050078A1, “COMPOSITION FOR IMPROVING OR PREVENTING NONALCOHOLIC FATTY LIVER” (KOHJIN LIFE SCIENCES CO., LTD., priority 2015, published 2018)

System: Mice (C57/B6J) fed with high-fat food
Excerpt: Mice (C57/B6J, 8 weeks old male) were divided into 4 groups (5 animals each), and the first group (DB) was freely fed with ordinary food (CertifiedDiet “MF” manufactured by Oriental Yeast Co., ltd.). The second group (HFD) was freely fed with high-fat food (High Fat Diet 32, manufactured by CLEA Japan, Inc.), […].
When the mouse was 20 weeks old, the body weight, the liver weight, the serum aspartate aminotransferase (AST), the alanine aminotransferase (ALT), the serum triglyceride (TG), the free fatty acid value (FFA) and the total cholesterol value (T-cho) were measured.

[1] = HFD6 (6 mg/kg/day) and HFD60 (60 mg/kg/day) groups in comparison to HFD group, 20 weeks old
[2] = high-fat food mice, glutathione in water 6 or 60 mg/kg/day, 20 weeks old

N[C@@H](CCC(=O)N[C@@H](CS)C(=O)NCC(=O)O)C(=O)O [glutathione]
FFA (free fatty acid value) [1]: significant decrease | T-cho (total cholesterol value) [1]: significant decrease | TG (triglyceride value) [1]: significant decrease | serum AST, ALT, TG, FFA and T-cho: dose dependence (HFD6 group compared with HFD60 group): decrease dependently on the concentration | consumption amounts of feed and water (all of the groups (DB, HFD, HFD6, HFD60)): no significant difference | deposition of fat on the liver by high-fat food (high-fat food mice, glutathione 6 or 60 mg/kg/day): suppressed | body weight [2]: decrease of the body weight was recognized | liver weight [2]: decreased dependently on the concentration | ratio of liver weight/body weight [2]: decrease of the body weight ratio was also recognized
